In brackets after ≈: the same amount, converted by molar mass.

The text below walks through data of patent publication US10149839B2, “Chemical compounds” (AstraZeneca AB, priority 2016, dated 2018).

The nature of series [1]: Thermodynamic solubility (shake flask). In kind it is physicochemical. The note with it: aqueous phosphate buffer pH 7.4, 24 hours.
Series [2] in a line: Human plasma protein binding (equilibrium dialysis). In kind it is in vitro ADME. The settings on record: dialysis 18 hours. In general terms: In equilibrium dialysis only unbound substance equilibrates across the membrane.
The target of series [3] is T1, Estrogen Receptor (ERα) in MCF-7 cells (Homo sapiens (Human), UniProt P03372). Briefly: MCF-7 ER down-regulation assay (immuno-fluorescence). In kind it is cell-based. The settings on record: for IC50: 18-22 hours incubation; for % downregulation: shown in brackets where not >90%.
T1 sequence (P03372 whole entry): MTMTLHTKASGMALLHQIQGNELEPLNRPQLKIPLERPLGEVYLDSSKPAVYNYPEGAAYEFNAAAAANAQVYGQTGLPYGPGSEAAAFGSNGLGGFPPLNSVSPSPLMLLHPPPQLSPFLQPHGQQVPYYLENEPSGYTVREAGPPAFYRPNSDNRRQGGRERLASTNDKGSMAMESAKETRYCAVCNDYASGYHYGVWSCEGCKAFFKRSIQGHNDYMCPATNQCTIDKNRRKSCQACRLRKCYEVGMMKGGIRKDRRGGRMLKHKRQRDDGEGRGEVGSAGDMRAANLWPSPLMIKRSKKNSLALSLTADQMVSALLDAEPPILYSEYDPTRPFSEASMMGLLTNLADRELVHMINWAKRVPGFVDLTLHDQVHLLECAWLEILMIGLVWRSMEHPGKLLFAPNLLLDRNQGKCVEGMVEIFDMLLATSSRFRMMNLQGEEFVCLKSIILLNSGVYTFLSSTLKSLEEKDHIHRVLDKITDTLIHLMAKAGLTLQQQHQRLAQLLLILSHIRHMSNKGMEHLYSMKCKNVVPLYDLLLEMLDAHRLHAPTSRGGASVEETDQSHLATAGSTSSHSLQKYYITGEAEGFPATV
A further series is described as follows: physchem. The note with it: 1-octanol/aqueous buffer, pH 7.4.
A short description of series [4]: Human hepatocyte assay (metabolic stability). In kind it is in vitro ADME. The settings on record: cryopreserved pooled human hepatocytes (LiverPool 10 Donor), in vitro intrinsic clearance.
Series [5] can be described thus: Log D (shake flask, 1-octanol/aqueous buffer). The note with it: pH 7.4, 1-octanol/aqueous buffer.
Series [6] has as its target T1, Estrogen Receptor (ERα) in MCF-7 cells. Briefly: Western blotting assay, MCF-7 cells. In kind it is cell-based. The note with it: compound 100 nM, 48 h, normalised to 100 nM fulvestrant (100%). On the technique in general: Immunoblotting shows a protein as a band on a membrane.
Series [7] concerns the target estrogen receptor (ERα) in CAMA-1 cells (Homo sapiens (Human), UniProt P03372). The series can be described thus: Western blotting assay, CAMA-1 cells. In kind it is cell-based. The settings on record: compound 100 nM, 48 h, normalised to 100 nM fulvestrant (100%).
Where [8] appears, read: aqueous phosphate buffer, 25 °C, pH 7.4, aqueous buffer, thermodynamic from solid.

Sequence of estrogen receptor (ERα) in CAMA-1 cells (P03372 whole entry): as above

`C[C@@H]1Cc2c([nH]c3ccccc23)[C@@H](c2ccc(OCCNCCCF)cn2)N1CC(C)(C)F` [Example 30, 3-fluoro-N-(2-((6-((1S,3R)-2-(2-fluoro-2-methylpropyl)-3-methyl-2,3,4,9-tetrahydro-1H-pyrido[3,4-b]indol-1-yl)pyridin-3-yl)oxy)ethyl)propan-1-amine]: the solubility – broadly, how much of the substance goes into solution per volume – at 24 h in series [1] (setting [8]) was determined as 135 µM (≈ 61.6 µg/mL). For the same molecule, the “Human plasma protein binding (% free)” value in series [2] came out at 2.0 % free. Further, inhibition in series [3] was half-maximal at 1.2 nM (IC50). Further, the pH-dependent lipophilicity (logD) (commonly lipophilicity at a set pH, counting ionised and neutral species) in the series “physchem” was 3.4. Further, in series [4], the hepatocyte CLint – broadly, the rate of metabolic loss divided by the concentration – at 1 µM turned out to be 5 µL/min/1e6 cells.

In the case of `C[C@@H]1Cc2c([nH]c3ccccc23)[C@@H](c2ccc(OCCNCCCF)cc2)N1C[C@H](F)CF` (single isomer, unassigned) [Example 26], in series [5], the “LogD pH 7.4” value was found to be 3.2. In series [1] (25° C.), this molecule showed a solubility at 24 h of 65 µM (≈ 29.9 µg/mL). Further, in series [2], the “Human plasma protein binding (% free)” value is reported as 2.7 % free. Besides, in series [3], the concentration for half-maximal inhibition (IC50) – broadly, the concentration that inhibits the measured activity by half – was 0.38 nM.

Regarding `C[C@@H]1Cc2c([nH]c3ccccc23)[C@@H](c2c(F)cc(OCC(CO)NCCCF)cc2F)N1CC(C)(C)F` (single isomer, unassigned) [Example 52], in series [5], the “LogD pH 7.4” value is given as above 4.1. The molecule further showed a solubility at 24 h in series [1] (25° C.) of 14 µM (≈ 7.3 µg/mL). Further, the “Human plasma protein binding (% free)” value in series [2] amounted to 0.47 % free. In series [3], inhibition was half-maximal at 0.24 nM (IC50) and the “% downregulation” value is reported as “(79%)”.

Take `C[C@@H]1Cc2c([nH]c3ccccc23)[C@@H](c2c(F)cc(OCC(CO)NCCCF)cc2F)N1CC(C)(C)F` (single isomer, unassigned) [Example 53]: the “LogD pH 7.4” value in series [5] is recorded as above 4.2. The molecule also registered a solubility at 24 h in series [1] (25° C.) of 23 µM (≈ 12 µg/mL). Also, the “Human plasma protein binding (% free)” value in series [2] is given as 0.55 % free. Further, in series [3], the IC50 stood at 0.14 nM.

Consider `C[C@@H]1Cc2c([nH]c3ccccc23)[C@@H](c2c(F)cc(OCCNCCCF)cc2F)N1CC(F)CF` (single isomer, unassigned) [Example 16], for which the “LogD pH 7.4” value in series [5] was found to be 3.1. In series [1] (25° C.), the solubility at 24 h was 149 µM (≈ 73.8 µg/mL). Besides, in series [2], the “Human plasma protein binding (% free)” value turned out to be 1.8 % free.

As to `COCC(C)(F)CN1[C@H](c2c(F)cc(OCCNCCCF)cc2F)c2[nH]c3ccccc3c2C[C@H]1C` (single isomer, unassigned) [Example 51], the “LogD pH 7.4” value in series [5] turned out to be 3.8. Further, the solubility at 24 h in series [1] (25° C.) came out at 53 µM (≈ 27.6 µg/mL). Also, the “Human plasma protein binding (% free)” value in series [2] was 0.41 % free.

For `C[C@@H]1Cc2c([nH]c3ccccc23)[C@@H](c2c(F)cc(OCCNCCCF)cc2F)N1CC(C)(F)CO` (single isomer, unassigned) [Example 18], in series [5], the “LogD pH 7.4” value was 2.7. The same molecule displayed a solubility at 24 h in series [1] (25° C.) of 639 µM (≈ 324 µg/mL). Moreover, in series [2], the “Human plasma protein binding (% free)” value is 2.4 % free. Besides, in series [3], the IC50 came to 0.65 nM and the “% downregulation” value was “(85%)”.

In the case of `CC(C)CN1[C@H](c2ccc(OCCNCCCF)cc2)c2[nH]c3ccccc3c2C[C@H]1C` [Example 2, 3-fluoro-N-(2-(4-((1R,3R)-2-isobutyl-3-methyl-2,3,4,9-tetrahydro-1H-pyrido[3,4-b]indol-1-yl)phenoxy)ethyl)propan-1-amine], in series [1] (setting [8]), the solubility at 24 h came out at 301 µM (≈ 132 µg/mL). Further, the “Human plasma protein binding (% free)” value in series [2] came to 1.5 % free. In series [3], this molecule displayed a half-maximal inhibitory concentration (IC50) of 0.43 nM. The same molecule displayed a logD in “physchem” of 3.6. In series [4], this molecule registered a hepatocyte CLint at 1 µM below 1 µL/min/1e6 cells.

`C[C@@H]1Cc2c([nH]c3ccccc23)[C@@H](c2cnc(OCCNCCCF)cn2)N1CC(C)(C)F` [Example 38, 3-fluoro-N-(2-((5-((1S,3R)-2-(2-fluoro-2-methylpropyl)-3-methyl-2,3,4,9-tetrahydro-1H-pyrido[3,4-b]indol-1-yl)pyrazin-2-yl)oxy)ethyl)propan-1-amine]: the “MCF7 Western % ER deg vs Fv” value in series [6] is 88%. This molecule had a solubility at 24 h in series [1] (setting [8]) of 227 µM (≈ 104 µg/mL). The “Human plasma protein binding (% free)” value in series [2] was 1.3 % free. In series [3], this molecule gave an IC50 of 0.43 nM. Moreover, in the series “physchem”, the logD came out at 3.3. In addition, the “CAMA1 Western % ER deg vs Fv” value in series [7] was 75%.
